Values of other authors as cited in patent publication US5476644A, “Cyclic triamine chelating agents” (Sterling Winthrop Inc., priority 1994, dated 1995).

Settings: background statement; cited from earlier work

**Q.** For `[Gd]` [free form of Gd, gadolinium], which “toxicity of the free form” value is on record?
**A.** quite toxic
